Experimental data published in patent publication US12427210B2, “Compounds comprising a fibroblast activation protein ligand and use thereof” (priority 2019, dated 2025).
Numbered stars: 1 amine (or outer) side, 2 acyl side, 3 side chain; on linkers, the order of the positions; unused ones are H or OH. Bridge positions count the residues as written; N and C are the ends. Peptide text beside a SMILES is read from it. * marks the point of attachment. X1 = O=C(O)CN1CCN(CC(=O)O)CCN(CC(=O)N2CCN(Cc3cc(C[*:1])cc(C[*:2])c3)CC2)CCN(CC(=O)O)CC1; Hexanoyl = CCCCCC(=O)*

What was measured:
Assay in all cases: biochemical
[1] = target: 5-HT1B (h) (Homo sapiens, UniProt P28222); conditions: read-out: % Inhibition of Specific Binding
5-HT1B (h), sequence (P28222 whole entry): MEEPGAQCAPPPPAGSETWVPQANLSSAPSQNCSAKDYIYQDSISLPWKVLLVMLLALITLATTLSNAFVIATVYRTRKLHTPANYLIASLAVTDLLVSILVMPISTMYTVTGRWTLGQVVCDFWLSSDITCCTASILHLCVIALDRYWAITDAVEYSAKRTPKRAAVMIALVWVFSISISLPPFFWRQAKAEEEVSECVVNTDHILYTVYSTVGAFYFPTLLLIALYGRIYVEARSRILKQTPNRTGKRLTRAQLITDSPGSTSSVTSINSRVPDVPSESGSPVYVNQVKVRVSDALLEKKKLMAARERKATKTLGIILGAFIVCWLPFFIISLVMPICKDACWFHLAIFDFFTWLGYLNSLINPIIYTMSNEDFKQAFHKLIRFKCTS

[2] = target: D2S (h) (Homo sapiens, UniProt P14416); conditions: read-out: % Inhibition of Specific Binding
D2S (h), sequence (P14416 1-414 isoform P14416-2): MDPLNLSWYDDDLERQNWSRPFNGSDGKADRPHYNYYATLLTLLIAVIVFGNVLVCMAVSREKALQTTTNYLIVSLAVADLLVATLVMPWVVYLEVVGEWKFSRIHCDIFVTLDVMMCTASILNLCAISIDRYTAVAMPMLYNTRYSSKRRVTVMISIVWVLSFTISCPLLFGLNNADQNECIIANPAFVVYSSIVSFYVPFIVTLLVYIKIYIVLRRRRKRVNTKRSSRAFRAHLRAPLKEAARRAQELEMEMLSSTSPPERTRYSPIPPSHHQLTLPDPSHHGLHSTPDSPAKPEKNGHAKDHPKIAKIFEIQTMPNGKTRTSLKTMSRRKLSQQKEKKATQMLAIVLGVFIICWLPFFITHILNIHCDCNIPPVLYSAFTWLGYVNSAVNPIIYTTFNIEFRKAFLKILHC

[3] = target: T1, Ubiquitin carboxyl-terminal hydrolase 5 (Homo sapiens, UniProt P45974); conditions: read-out: Percentage inhibition (%)
T1 sequence (P45974 1-858): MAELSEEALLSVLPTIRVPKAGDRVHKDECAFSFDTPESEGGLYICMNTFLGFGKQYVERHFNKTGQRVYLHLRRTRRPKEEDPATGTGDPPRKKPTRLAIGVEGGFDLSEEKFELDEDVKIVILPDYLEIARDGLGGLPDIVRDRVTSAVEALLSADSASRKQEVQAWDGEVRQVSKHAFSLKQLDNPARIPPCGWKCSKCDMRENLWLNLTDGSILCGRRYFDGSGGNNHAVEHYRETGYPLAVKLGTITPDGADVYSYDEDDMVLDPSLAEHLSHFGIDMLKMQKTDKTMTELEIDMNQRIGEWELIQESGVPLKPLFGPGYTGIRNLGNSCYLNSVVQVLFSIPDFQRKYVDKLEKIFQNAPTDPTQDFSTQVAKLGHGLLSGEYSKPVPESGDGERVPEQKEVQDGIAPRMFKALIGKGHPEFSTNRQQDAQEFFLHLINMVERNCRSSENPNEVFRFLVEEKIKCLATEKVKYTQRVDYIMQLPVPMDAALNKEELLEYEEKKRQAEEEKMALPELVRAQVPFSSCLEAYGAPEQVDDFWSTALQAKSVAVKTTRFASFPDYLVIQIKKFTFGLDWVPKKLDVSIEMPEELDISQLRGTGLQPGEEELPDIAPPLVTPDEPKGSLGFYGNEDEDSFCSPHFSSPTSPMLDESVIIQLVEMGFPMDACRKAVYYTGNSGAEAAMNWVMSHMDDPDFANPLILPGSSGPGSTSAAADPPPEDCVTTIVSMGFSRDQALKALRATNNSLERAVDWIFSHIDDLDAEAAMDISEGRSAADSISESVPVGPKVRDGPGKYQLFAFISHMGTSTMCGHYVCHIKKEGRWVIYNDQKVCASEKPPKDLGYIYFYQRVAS

[4] = target: PDE3A (h) (Homo sapiens, UniProt Q14432); conditions: read-out: % Inhibition of Specific Binding
PDE3A (h), sequence (Q14432 whole entry): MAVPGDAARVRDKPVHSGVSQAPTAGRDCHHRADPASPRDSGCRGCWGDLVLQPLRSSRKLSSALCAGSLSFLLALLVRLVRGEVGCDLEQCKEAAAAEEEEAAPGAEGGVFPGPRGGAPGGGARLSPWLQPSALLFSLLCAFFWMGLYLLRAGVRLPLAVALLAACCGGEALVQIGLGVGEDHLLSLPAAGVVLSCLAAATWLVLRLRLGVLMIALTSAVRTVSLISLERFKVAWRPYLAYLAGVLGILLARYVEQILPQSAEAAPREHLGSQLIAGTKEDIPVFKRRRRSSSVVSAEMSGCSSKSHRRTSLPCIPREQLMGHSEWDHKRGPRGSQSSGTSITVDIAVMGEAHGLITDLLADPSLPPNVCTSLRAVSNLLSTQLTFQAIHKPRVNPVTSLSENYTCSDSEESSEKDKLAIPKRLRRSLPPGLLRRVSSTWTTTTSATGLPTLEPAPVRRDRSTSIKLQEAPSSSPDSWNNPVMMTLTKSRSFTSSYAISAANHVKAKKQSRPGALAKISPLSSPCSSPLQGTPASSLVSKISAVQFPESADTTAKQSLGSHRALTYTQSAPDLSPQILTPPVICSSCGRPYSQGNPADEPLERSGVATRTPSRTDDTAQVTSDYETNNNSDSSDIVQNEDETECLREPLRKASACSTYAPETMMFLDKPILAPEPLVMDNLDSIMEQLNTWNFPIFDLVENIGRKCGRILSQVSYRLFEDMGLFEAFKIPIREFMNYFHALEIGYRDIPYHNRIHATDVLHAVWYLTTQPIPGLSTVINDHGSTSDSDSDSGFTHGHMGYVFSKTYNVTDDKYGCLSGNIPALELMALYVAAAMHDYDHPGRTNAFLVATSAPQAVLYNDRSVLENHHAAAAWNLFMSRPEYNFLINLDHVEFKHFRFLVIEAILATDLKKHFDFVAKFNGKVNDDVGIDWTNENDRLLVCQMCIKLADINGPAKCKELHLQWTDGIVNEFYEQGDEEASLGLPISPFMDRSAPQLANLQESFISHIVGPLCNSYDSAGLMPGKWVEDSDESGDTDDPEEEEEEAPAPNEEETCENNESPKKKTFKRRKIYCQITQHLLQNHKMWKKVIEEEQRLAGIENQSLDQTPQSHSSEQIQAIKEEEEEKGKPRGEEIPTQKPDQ

[5] = target: kappa (h) (KOP) (Homo sapiens, UniProt P41145); conditions: read-out: % Inhibition of Specific Binding
kappa (h) (KOP), sequence (P41145 whole entry): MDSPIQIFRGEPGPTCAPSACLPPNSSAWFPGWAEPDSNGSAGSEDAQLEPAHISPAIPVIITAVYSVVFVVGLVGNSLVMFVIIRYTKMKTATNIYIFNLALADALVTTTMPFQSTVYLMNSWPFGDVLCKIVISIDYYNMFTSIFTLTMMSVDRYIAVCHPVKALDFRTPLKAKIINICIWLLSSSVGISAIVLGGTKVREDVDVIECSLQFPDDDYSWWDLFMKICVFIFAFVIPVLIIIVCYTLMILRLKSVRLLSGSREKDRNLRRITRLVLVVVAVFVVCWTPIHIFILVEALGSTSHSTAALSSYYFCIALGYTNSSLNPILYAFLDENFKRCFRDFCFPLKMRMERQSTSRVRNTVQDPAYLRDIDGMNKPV

[6] = target: Ubiquitin carboxyl-terminal hydrolase 7 (Homo sapiens, UniProt Q93009); conditions: read-out: Percentage inhibition (%)
Ubiquitin carboxyl-terminal hydrolase 7, sequence (Q93009 whole entry): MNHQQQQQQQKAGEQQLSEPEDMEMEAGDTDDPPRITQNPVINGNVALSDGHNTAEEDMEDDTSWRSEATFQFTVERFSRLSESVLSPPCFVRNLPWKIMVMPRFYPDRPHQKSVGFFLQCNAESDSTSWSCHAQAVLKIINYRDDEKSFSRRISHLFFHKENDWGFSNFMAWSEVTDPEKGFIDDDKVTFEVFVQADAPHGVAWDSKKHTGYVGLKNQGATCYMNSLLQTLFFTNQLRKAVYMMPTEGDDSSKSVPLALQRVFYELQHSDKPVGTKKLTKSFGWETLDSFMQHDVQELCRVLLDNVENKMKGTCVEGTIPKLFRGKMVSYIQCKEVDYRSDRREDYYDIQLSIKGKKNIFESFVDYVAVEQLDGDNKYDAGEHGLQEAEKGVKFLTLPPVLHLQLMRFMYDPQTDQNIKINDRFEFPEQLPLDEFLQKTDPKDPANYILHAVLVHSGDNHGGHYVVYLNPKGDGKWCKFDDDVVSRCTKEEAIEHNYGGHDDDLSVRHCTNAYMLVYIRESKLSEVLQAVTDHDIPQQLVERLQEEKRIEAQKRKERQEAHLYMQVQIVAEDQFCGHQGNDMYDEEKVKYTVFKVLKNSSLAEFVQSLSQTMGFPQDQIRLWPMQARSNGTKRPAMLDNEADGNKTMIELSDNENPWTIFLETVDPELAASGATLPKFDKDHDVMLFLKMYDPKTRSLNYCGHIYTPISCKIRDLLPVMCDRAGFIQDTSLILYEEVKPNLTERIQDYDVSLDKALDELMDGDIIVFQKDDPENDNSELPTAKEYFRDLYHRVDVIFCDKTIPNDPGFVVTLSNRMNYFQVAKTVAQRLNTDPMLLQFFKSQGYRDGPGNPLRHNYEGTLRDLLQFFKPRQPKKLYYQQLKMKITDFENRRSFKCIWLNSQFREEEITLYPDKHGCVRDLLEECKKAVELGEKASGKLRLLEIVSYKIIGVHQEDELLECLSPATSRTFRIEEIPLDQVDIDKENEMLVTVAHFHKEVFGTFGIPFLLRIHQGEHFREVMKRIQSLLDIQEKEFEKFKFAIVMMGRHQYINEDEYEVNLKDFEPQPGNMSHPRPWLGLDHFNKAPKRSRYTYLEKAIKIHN

[7] = target: T2, Matrix metalloprotease1 (Homo sapiens, UniProt P03956); conditions: read-out: Percentage inhibition (%)
T2 sequence (P03956 100-469): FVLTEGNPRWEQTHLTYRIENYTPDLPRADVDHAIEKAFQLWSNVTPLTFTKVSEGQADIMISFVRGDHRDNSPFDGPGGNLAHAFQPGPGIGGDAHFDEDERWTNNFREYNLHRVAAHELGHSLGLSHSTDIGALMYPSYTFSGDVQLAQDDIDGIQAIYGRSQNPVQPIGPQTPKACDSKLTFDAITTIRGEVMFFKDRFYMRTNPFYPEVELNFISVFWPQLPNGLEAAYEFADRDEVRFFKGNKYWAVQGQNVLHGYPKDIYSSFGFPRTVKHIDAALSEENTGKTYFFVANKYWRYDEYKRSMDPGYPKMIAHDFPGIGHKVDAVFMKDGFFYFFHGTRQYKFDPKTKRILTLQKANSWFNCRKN

[8] = target: T3, alpha 1A (h) (Homo sapiens, UniProt P35348); conditions: read-out: % Inhibition of Specific Binding
T3 sequence (P35348 1-466): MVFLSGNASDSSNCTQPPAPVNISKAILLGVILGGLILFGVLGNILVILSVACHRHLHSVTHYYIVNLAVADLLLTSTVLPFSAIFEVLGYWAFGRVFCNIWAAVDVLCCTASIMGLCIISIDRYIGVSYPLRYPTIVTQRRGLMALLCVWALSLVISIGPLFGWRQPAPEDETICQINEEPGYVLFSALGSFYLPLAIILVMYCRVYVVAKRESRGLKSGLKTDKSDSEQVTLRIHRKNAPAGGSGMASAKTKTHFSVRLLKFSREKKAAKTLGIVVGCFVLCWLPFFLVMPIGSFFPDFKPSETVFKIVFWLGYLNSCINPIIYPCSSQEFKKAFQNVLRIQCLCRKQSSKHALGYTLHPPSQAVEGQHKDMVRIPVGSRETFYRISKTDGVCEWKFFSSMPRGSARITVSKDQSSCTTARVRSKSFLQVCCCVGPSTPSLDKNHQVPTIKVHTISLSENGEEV

[9] = target: alpha 2A (h) (Homo sapiens, UniProt P08913); conditions: read-out: % Inhibition of Specific Binding
alpha 2A (h), sequence (P08913 whole entry): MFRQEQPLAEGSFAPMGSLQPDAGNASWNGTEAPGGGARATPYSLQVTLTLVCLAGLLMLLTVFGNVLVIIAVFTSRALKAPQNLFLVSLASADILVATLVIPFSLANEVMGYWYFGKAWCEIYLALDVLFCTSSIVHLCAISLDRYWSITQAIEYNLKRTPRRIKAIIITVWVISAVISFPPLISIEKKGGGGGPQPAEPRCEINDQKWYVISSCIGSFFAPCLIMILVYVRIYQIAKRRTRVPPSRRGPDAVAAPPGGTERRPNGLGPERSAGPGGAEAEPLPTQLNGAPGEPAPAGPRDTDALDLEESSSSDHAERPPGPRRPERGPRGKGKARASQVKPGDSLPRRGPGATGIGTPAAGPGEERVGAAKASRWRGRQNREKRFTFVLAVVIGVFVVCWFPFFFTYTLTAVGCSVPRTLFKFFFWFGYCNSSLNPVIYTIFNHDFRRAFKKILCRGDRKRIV

[10] = target: CCK1 (CCKA) (h) (Homo sapiens, UniProt P32238); conditions: read-out: % Inhibition of Specific Binding
CCK1 (CCKA) (h), sequence (P32238 whole entry): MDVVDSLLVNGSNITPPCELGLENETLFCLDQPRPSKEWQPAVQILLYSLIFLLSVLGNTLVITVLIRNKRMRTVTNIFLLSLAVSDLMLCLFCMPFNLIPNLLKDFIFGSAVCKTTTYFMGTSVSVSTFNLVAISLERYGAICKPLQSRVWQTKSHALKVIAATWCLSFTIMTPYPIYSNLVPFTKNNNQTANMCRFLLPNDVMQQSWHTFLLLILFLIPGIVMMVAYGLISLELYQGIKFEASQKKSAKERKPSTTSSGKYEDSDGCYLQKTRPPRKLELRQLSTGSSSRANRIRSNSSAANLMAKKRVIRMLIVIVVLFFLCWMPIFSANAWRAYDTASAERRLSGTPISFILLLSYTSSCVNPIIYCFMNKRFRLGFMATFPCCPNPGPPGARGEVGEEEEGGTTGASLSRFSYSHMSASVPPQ

[11] = target: T4, Deubiquitinase OTUD6B (Homo sapiens, UniProt Q8N6M0); conditions: read-out: Percentage inhibition (%)
T4 sequence (Q8N6M0 1-293): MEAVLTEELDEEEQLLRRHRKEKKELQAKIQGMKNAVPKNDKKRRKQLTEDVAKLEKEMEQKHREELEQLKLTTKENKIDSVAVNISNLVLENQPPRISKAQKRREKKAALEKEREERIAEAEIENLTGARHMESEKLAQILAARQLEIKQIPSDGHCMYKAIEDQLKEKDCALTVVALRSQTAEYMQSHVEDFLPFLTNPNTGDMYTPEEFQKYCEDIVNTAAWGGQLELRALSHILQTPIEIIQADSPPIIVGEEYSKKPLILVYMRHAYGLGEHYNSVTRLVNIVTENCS

Compound | inhibition at 10 µM [1] | inhibition at 10 µM [2] | inhibition at 1 µM [3] | inhibition at 10 µM [3] | inhibition at 10 µM [4] | inhibition at 10 µM [5] | inhibition at 1 µM [6] | inhibition at 10 µM [6] | inhibition at 1 µM [7] | inhibition at 10 µM [7] | inhibition at 10 µM [8] | inhibition at 10 µM [9] | inhibition at 10 µM [10] | inhibition at 1 µM [11] | inhibition at 10 µM [11]
CCCCCC(=O)N[C@H]1CSCc2cc(CSCCNC(=O)CN3CCN(CC(=O)O)CCN(CC(=O)O)CCN(CC(=O)O)CC3)cc(c2)CSC[C@@H](C(=O)O)NC(=O)[C@H](Cc2ccccc2)NC(=O)[C@H](CCC(N)=O)NC(=O)[C@H]([C@@H](C)O)NC(=O)[C@@H]2CCCN2C(=O)[C@@H]2CCCN2C1=O [Compound 3BP-3554, Hex-[Cys(tMeBn(DOTA-AET))-Pro-Pro-Thr-Gln-Phe-Cys]-OH] | 8% | -7% | -4% | -2% | -37% | 10% | 1% | 1% | 1% | -7% | -12% | 2% | 16% | 0% | 0%
CCCCCC(=O)N[C@H]1CSCc2cc(cc(CN3CCN(C(=O)CN4CCN(CC(=O)O)CCN(CC(=O)O)CCN(CC(=O)O)CC4)CC3)c2)CSC[C@@H](C(=O)N[C@@H](CC(=O)O)C(N)=O)NC(=O)[C@H](Cc2ccccc2)NC(=O)[C@H](CCC(N)=O)NC(=O)[C@H]([C@@H](C)O)NC(=O)[C@@H]2CCCN2C(=O)[C@@H]2CCCN2C1=O [Compound 3BP-3407, Hex-[Cys(tMeBn(DOTA-PP))-Pro-Pro-Thr-Gln-Phe-Cys]-Asp-NH2] (Hexanoyl-CPPTQFCD-NH2; linker 1-7 via X1) | -11% | 15% | 3% | 46% | -3% | 7% | 5% | 5% | -1% | 2% | 2% | -9% | 24% | 2% | 15%
